Columns and labels:
[1] = system: NIH:OVCAR5 cells; test: Initial screening of Nectin-4 peptides for spheroid formation, flat-bottom ultra-low attachment plates, manual photographs; assay type: cell-based, human; conditions: peptide 150 µg/mL, 96-well flat-bottom ultra-low attachment plates, photographed at 24 and 48 h, 8 technical replicates, data not shown
Procedure: Twenty-one peptides of 14 amino acids in length encompassing the extracellular domain of Nectin-4 (Figure 2 and Table 1) were synthesized as previously described. The peptides were initially screened at a concentration of 150 µg/mL in 96-well flat-bottom ultra-low attachment plates to identify the section(s) of Nectin-4 that are active in ovarian cancer cell aggregation and spheroid formation. NIH:OVCAR5 cells and peptides were seeded into the plates and manually photographed at 24 and 48 h time points. […] However, the cells treated with the other 18 peptides produced spheroids that appeared to be similar in size to the untreated control cells.
For the initial screening of the twenty-one Nectin-4 peptides, 50 ul of the peptides at 300 µg/mL (for a final working concentration of 150 µg/mL peptide per well) in complete media were added to 96-well flat-bottom ultra-low attachment plates (Corning, Corning, NY, USA). DMSO was used as a negative control. Fifty microliters of NIH:OVCAR5 cells at a concentration of 1.0 × 10^5 cells/mL in complete media were added to each well. The plates were then incubated at 37 °C in 5% CO2 for 48 h, with photographs taken manually at 24 and 48 h on a Nikon® TE200 microscope. A single screening experiment was conducted with 8 technical replicates at each condition to determine which peptides had the most significant effect on spheroid formation.

[2] = system: NIH:OVCAR5 cells; test: Real-time spheroid formation, round-bottom ultra-low attachment plates, IncuCyte Zoom time-lapse, CellProfiler area; assay type: cell-based, human; conditions: for inhibition of spheroid formation at 18 µg/mL: peptide 18 µg/mL; for effect on spheroid formation (spheroid size, time-lapse): 96-well round-bottom ultra-low attachment plates, IncuCyte Zoom, first 24 h, DMSO control; for spheroid contraction / compact spheroid formation, average spheroid area over time: quadruplicate; for cell-cell adhesion at early time points of spheroid formation: before ~6 h, time-lapse imaging
Procedure: (§1) Confluent monolayers of ovarian cancer cell lines (NIH:OVCAR5, N4-KD-VB9, or CAOV3) were detached from the tissue culture flasks using 0.05% Trypsin (ThermoFisher Scientific, Waltham, MA, USA) and resuspended at a concentration of 1.0 × 10^5 cells/mL in complete media. Each well of a 96-well round-bottom ultra-low attachment plate (Corning, Corning NY, USA) was seeded with 50 ul of the resulting suspension. In most cases, the experiments were conducted with eight technical replicates at each condition. The plates were then placed in the gantry of the IncuCyte® Zoom (Sartorius, Ann Arbor, MI, USA) live cell analysis system and incubated at 37 °C in 5% CO2 for 24–72 h, as indicated. Photographs were taken at ~15 min increments for a total of no less than 48 h for the NIH:OVCAR5 cell lines or up to 72 h for the CAOV3 cell line. The initial photographs (t = 0) were taken 10–25 min after the cells were plated, at which time the cells had gravitated to the bottom of the well and were initiating the cell–cell attachments. The resulting footage was analyzed to determine the change in the area of the spheroid aggregates over time. The images were binarized to black and white, and the sum of the area of the small aggregates (black objects) in pixels was determined via the CellProfiler^TM workflow described below. Each image was normalized to the same dimensions, so that the areas could be compared.
Experiments were then repeated using round-bottom ultra-low attachment plates in which the cells were added to the wells containing the peptides at a final concentration of 150 µg/mL. The plates were placed in the IncuCyte® Zoom instrument for 24-48 h of live cell imaging, as described above. Experiments with the peptides selected for further study were performed in triplicate, with 8–16 technical replicates at each treatment condition.
NIH:OVCAR5 cells were added to wells containing from 9 to 150 µg/mL of peptide N4-P10 or peptide N4-P10S, or DMSO control, and then the formation of spheroids was monitored via the IncuCyte® Zoom instrument. The resulting footage was analyzed with the CellProfiler^TM pipeline described below.
A simple four-step CellProfiler™ (open source, Broad Institute, www.cellprofiler.org) pipeline was used to delineate the biologically relevant image contents and to quantify the area of spheroids over time. As part of the CellProfiler™ workflow, cellular edges were enhanced using the Sobel method, the images were converted to binary via Otsu method thresholding, and the area of occupied pixels as a function of overall image size was recorded. The resulting values were exported for analysis and visualization in the R statistical programming language. The values were averaged and the mean with the standard error of the mean (SEM) was determined and graphed. Experiments were routinely performed with eight replicates for each condition, and repeated a minimum of two times on separate days. Since many photographs were taken during the course of each experiment (approximately every 15 min) and the SEM was very small, it is difficult to see the small error bars in the graphs. For this reason, the values for each experimental SEM were included in the figure legends.

[3] = system: NIH:OVCAR5 cells; conditions: 150 µg/mL peptide N4-P10 or 2 µg/mL puromycin, 250 nM Cytotox Green, 72 h, quadruplicate
Procedure: As a positive control for cytotoxicity, 2 µg/mL puromycin was used.

[4] = system: CAOV3 cells; test: Real-time spheroid formation, round-bottom ultra-low attachment plates, IncuCyte Zoom time-lapse, CellProfiler area; assay type: cell-based, human; conditions: peptide 150 µg/mL; for effect on spheroid formation of CAOV3 cells: round-bottom ultra-low attachment plates, 72 h, quadruplicate, DMSO control
Procedure: as §1
A simple four-step CellProfiler™ (open source, Broad Institute, www.cellprofiler.org) pipeline was used to delineate the biologically relevant image contents and to quantify the area of spheroids over time. As part of the CellProfiler™ workflow, cellular edges were enhanced using the Sobel method, the images were converted to binary via Otsu method thresholding, and the area of occupied pixels as a function of overall image size was recorded. The resulting values were exported for analysis and visualization in the R statistical programming language. The values were averaged and the mean with the standard error of the mean (SEM) was determined and graphed. […]

[5] = system: recombinant Nectin-1; conditions: ovarian cancer cell adhesion to recombinant Nectin-1, short-term binding assay, previous study ref 15; cited from earlier work
Excerpt: In our previous study, peptides N4-P10 and N4-P22 both inhibited cell adhesion by approximately 50%; however, the inhibition of spheroid formation by these two peptides was more disparate, with peptide N4-P10 almost completely inhibiting spheroid formation. In contrast, ...

[6] = peptide 150 µg/mL, 24 h, versus DMSO control

Row | Molecule | effect on formation of spheroids (initial screen) [1] | inhibition of spheroid formation at 18 µg/mL ([2]; 24 h, versus DMSO control) | effect on spheroid formation (spheroid size, time-lapse) ([2]; peptide 150 µg/mL) | spheroid contraction / compact spheroid formation, average spheroid area over time [2, 6] | cell-cell adhesion at early time points of spheroid formation ([2]; peptide 150 µg/mL) | cytotoxic effect (cell death, integrated fluorescence intensity) [3] | effect on spheroid formation of CAOV3 cells [4] | inhibition of cell adhesion to Nectin-1 [5] | other results
1 | QARLRLRVLVPPLP [N4-P10, Nectin-4 extracellular domain peptide, AA 138-151] | significantly impeded the formation of spheroids | marginal effect of inhibiting spheroid formation | most dramatic effect on spheroid formation | did not form compact spheroids | appeared to inhibit cell–cell adhesion | negligible | inhibited the spheroid formation of CAOV3 cells | approximately 50% | inhibition of spheroid formation at 37.5 to 150 µg/mL ([2]; peptide 37.5 to 150 µg/mL, 24 h): almost complete inhibition of spheroid formation; size / packing of CAOV3 multicellular aggregates ([4]; after 72 h of incubation, CellProfiler area): not as tightly packed as the spheroids that were formed in the presence of peptide N4-P10S or the DMSO control
2 | SGKQVDLVSASV [N4-P27, Nectin-4 peptide, AA 339-350, adjacent to membrane] | significantly impeded the formation of spheroids |  | significant impact on the formation of spheroids |  |  |  |  | did not inhibit ovarian cancer cell adhesion to recombinant Nectin-1 | inhibition of spheroid formation compared to the control ([2]; peptide 150 µg/mL, spheroid area at 24 h): almost forty percent
3 | RPVQLALPRLVRPL [N4-P10S, scrambled version of peptide N4-P10 used as a control peptide, reference compound] |  | no effect compared to the DMSO control |  | visually and quantitatively similar to that of the untreated controls |  |  | formed aggregates over 24 h that contracted into more compact spheroids after 72 h |  | change in formation of spheroids at any concentration ([2]; peptide 9-150 µg/mL, 24 h, versus DMSO control): no quantifiable change in the formation of spheroids compared with the control
4 | WTRLDGPLPSGVRV [N4-P22, Nectin-4 extracellular domain peptide, AA 282-295] | significantly impeded the formation of spheroids |  | more modest inhibition of spheroid formation |  | appeared to inhibit cell–cell adhesion |  |  | approximately 50% | 
5 | EVKGTTSSRSFKHS [N4-P14, Nectin-4 extracellular domain peptide, AA 186-199] |  |  | no effect on spheroid formation |  |  |  |  |  | 
6 | COc1ccc(C[C@H](N)C(=O)N[C@H]2[C@@H](O)[C@H](n3cnc4c(N(C)C)ncnc43)O[C@@H]2CO)cc1 [puromycin, reference compound] |  |  |  |  |  | essentially all died within 24 h |  |  | 

Reference: paper PMC7370299, “Inhibition of Ovarian Cancer Cell Spheroid Formation by Synthetic Peptides Derived from Nectin-4” (International Journal of Molecular Sciences, 2020)
